Laboratory results published in publication PMC6268315, “Investigating the Spectrum of Biological Activity of Substituted Quinoline-2-Carboxamides and Their Isosteres ^†” (Molecules, 2012).
Converted amounts (≈) assume the structure as drawn.

Test system: Mycobacterium tuberculosis CUH071
Assay: In vitro antimycobacterial evaluation (alamarBlue)
Format: cell-based
Conditions: 168 h, clinical isolate CUH071 with partial INH and PZA resistance, 7 days, read-out: MIC/IC90 M. tuberculosis

Row | Compound | MIC
1 | CC(C)NC(=O)c1ccc2ccccc2n1 [Compound 1, N-Isopropylquinoline-2-carboxamide] | 280 µM (≈ 60 µg/mL)
2 | CCCCCCCCCCCCNC(=O)c1ccc2ccccc2n1 [Compound 2, N-Dodecylquinoline-2-carboxamide] | 367 µM (≈ 125 µg/mL)
3 | O=C(c1ccc2ccccc2n1)N1CCCC1 [Compound 3, 2-(Pyrrolidin-1-ylcarbonyl)quinoline] | 552 µM (≈ 125 µg/mL)
4 | O=C(NC1CCCC1)c1ccc2ccccc2n1 [Compound 5, N-Cyclopentylquinoline-2-carboxamide] | 491 µM (≈ 118 µg/mL)
5 | O=C(NC1CCCCC1)c1ccc2ccccc2n1 [Compound 6, N-Cyclohexylquinoline-2-carboxamide] | 125 µM (≈ 31.8 µg/mL)
6 | O=C(NC1CCCCCC1)c1ccc2ccccc2n1 [Compound 7, N-Cycloheptylquinoline-2-carboxamide] | 111 µM (≈ 29.8 µg/mL)
7 | O=C(NCCc1ccccc1)c1ccc2ccccc2n1 [Compound 11, N-(2-Phenylethyl)quinoline-2-carboxamide] | 109 µM (≈ 30.1 µg/mL)
8 | Cc1cccc(NC(=O)c2ccc3ccccc3n2)c1 [Compound 14b, N-(3-Methylphenyl)quinoline-2-carboxamide] | 469 µM (≈ 123 µg/mL)
9 | O=C(c1ccc2ccccc2c1)N1CCCC1 [Compound 22, 1-(2-Naphthoyl)pyrrolidine] | 554 µM (≈ 125 µg/mL)
10 | COc1ccccc1NC(=O)c1ccc2ccccc2c1 [Compound 32a, N-(2-Methoxyphenyl)-2-naphthamide] | 901 µM (≈ 250 µg/mL)
11 | NNC(=O)c1ccncc1 [INH, isoniazid, reference compound] | > 729 µM
12 | NC(=O)c1cnccn1 [PZA, pyrazinamide, reference compound] | > 812 µM
